From US8563578B2, “Antitumor properties of NO modified protease inhibitors” (Onconox APS, priority 2008, dated 2013)

Test system: B16 cells
Test: Viability (MTT) of B16 cells with Saq-NO2 plus Akt/PI-3K inhibitor
Assay type: cell-based, mouse
Settings: B16, 24 h, 18.8 μM Saq-NO2 with Akt VI (50μg/ml) or 3-MA (1 mM)
Method: Reduction of 3-4,5-dimethylthiazol-2-yl)-2,5-diphenyltetrazolium bromide (MTT) to formazan depends on mitochondrial activity of cultured cells, absorption of crystal violet dye correlates with the number of adherent, live cells, while the release of cytosolic lactate dehydrogenase (LDH) indicates the disruption of membrane integrity caracteristic for necrotic cells. The cells were seeded in flat-bottom 96-well plates in a final volume of 200 μl of culture medium containing different agents, and the assays were performed after 24 h incubation exactly as previously described (Mijatovic et al. 2004, Decker et al., 1998). Mitohondrial-dependent production of formazan and intensity of absorbed crystal violet by adherent cells were assessed by an automated microplate reader at 570 nm, while the pyruvate-mediated conversion of 2,4-dinitrophenylhydrazine into visible hydrazone precipitate in LDH assay was measured at 492 nm. The % of cytotoxicity as indicated by LDH release was calculated as: (E−C)/(T−C)×100, where E is the experimental absorbance of cell cultures, C is the control absorbance of cell-free culture medium, and T is the absorbance corresponding to the maximal (100%) LDH release of Triton-lysed cells.
FIG. 6. […] (C) B16 cells (1×10^4 cells/well) were incubated for 24 h with 18.8 μM Saq-NO2 with or without Akt VI (50μg/ml) or 3-MA (1 mM) and cell viability was assessed by MTT. […]

Cn1cnc(=N)c2[nH]cnc21 [3-MA] was tested, and the “tumor cell viability on addition of inhibitor to Saq-NO2” value was “further decrease of tumor cell viability”.
